Like-named read-outs stand apart in the source and are kept apart here.
Experiments:
[1] = biological target: T1, β-receptors of the heart (Felis catus, UniProt Q9TST6); test: β-blocking activity on heart rate (isoprenaline response) in reserpinized cats; type: in vivo, cat; conditions: read-out: β-blockade Heart rate ED50
T1 construct: Intravenously injected isoprenaline increased the heart rate and reduced the perfusion pressure; from tissue; host or cells: heart of the intact anaesthetized, reserpinized, vagotomized cat (in vivo)
Protocol: (§1) The acute LD50 in mice was evaluated. Alprenolol was used as a reference substance.
(§2) Cats weighing between 1.8 and 2.8 kg were anaesthetized with 30 mg/kg pentobarbital sodium, intraperitoneally. The cats had been pretreated with reserpine, 5 mg/kg intramuscular, about 18 hours before the experiment. Bilateral vagotomy was performed before the start of the experiment.
(§3) The heart rate was recorded on an Offner cardiotachometer triggered by the EKG-complex. Mean arterial blood pressure was recorded from a carotid artery. The peripheral resistance was measured in one of the legs of the cat in the following way: The femoral artery was opened in the inguinal region and the leg was perfused by blood delivered through a sigma motor pump at constant rate. The flow resistance (the pressure) was recorded via a pressure transudcer connected to the catheter distally to the pump. The paw was excluded from the circulation by a tight ligature Intravenously injected isoprenaline increased the heart rate and reduced the perfusion pressure. An isoprenaline dose giving 70-80% of the maximal chronotropic response was determined. This dose (usually 0.1 μg/kg) was then repeated with 20 minute intervals. Ten minutes before each isoprenaline injection, the tested substances were administered intravenously for two minutes, starting with a dose of 0.01 mg/kg and increasing each subsequent dose fourfold. The intrinsic effects of the test substances were determined. The dose producing 50% blockade of the isoprenaline responses was evaluated from the plotted log dose-percent blockade diagrams.

[2] = in vivo; conditions: mouse, ip
Protocol: (§4) Compounds prepared according to the examples were evaluated for intrinsic activity and blocking effect on heart rate and: peripheral vasodilator response to isoprenaline in the cat. The acute LD50 in mice was evaluated.

[3] = biological target: T2, peripheral vascular β-receptors (Felis catus, UniProt Q9TST5); test: β-blocking activity on peripheral vascular resistance (vasodilator response to isoprenaline) in reserpinized cats; type: in vivo, cat; conditions: read-out: β-blockade peripheral vascular resistance ED50
T2 construct: from tissue; host or cells: vascular bed of the perfused leg of the anaesthetized, reserpinized cat, paw excluded (in vivo)
Protocol: as §1, §2, §3

[4] = tested on: heart rate; test: intrinsic stimulating activity on heart rate in reserpinized cats; type: in vivo, cat; conditions: Felis catus, read-out: Intrinsic activity % of maximal isoprenaline heart rate
Protocol: as §4, §2
as §3, with “The paw was excluded from the circulation by a tight ligature Intravenously injected isoprenaline increased the heart rate and reduced the perfusion pressure.” left out, “This dose (usually 0.1 μg/kg) was then repeated with 20 minute intervals.” left out

[5] = reserpinized cat, pentobarbital anaesthesia, intravenous
[6] = reserpinized cat, intravenous, dose producing 50% blockade of isoprenaline response

T1 sequence (Q9TST6 whole entry, the tested form may be a part): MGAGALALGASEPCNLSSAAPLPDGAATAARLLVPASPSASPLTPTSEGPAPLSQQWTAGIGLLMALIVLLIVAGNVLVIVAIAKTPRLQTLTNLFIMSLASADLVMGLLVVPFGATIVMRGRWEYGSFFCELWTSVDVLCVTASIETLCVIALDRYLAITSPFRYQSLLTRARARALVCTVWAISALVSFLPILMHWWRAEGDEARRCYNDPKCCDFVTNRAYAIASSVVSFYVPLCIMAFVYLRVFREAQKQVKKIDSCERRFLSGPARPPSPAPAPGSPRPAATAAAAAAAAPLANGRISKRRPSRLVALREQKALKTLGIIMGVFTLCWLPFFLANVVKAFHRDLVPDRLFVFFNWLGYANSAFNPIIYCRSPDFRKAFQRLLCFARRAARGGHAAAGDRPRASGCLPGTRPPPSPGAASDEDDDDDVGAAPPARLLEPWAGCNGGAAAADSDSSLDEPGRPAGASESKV
T2 sequence (Q9TST5 whole entry, the tested form may be a part): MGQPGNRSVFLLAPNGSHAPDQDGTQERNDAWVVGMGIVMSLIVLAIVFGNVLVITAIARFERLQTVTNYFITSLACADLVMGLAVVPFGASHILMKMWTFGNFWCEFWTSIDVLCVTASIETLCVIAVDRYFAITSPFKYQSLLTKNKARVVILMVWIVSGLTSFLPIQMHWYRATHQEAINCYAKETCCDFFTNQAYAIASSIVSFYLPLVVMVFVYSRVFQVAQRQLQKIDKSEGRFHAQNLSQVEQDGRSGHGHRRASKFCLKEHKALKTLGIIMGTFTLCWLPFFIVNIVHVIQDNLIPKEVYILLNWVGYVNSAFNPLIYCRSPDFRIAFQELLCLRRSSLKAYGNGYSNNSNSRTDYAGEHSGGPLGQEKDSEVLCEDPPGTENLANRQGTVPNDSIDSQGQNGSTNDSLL

SMILES | ED50 ([1]; cat, iv) | LD50 [2] | ED50 ([3]; cat, iv) | Emax [4, 5] | ED50 [1, 6] | ED50 [3, 6] | Emax ([4]; iv)
COCCc1ccc(OCC(O)CNC(C)C)cc1 (stereo not drawn) [Ex. I, 1-isopropylamino-3-[p-(β-methoxyethyl)-phenoxy]-propanol-2] | 0.4 mg/kg | 200 mg/kg | 3 mg/kg | 0% |  |  | 
CCOC(=O)NCCc1ccc(OCC(O)CNC(C)C)cc1 (centres unmarked) |  | 200 mg/kg |  |  | 0.3 mg/kg | 25 mg/kg | 0%
COC(=O)NCCc1ccc(OCC(O)CNC(C)C)cc1 (centres unmarked) [(no label)] |  | 125 mg/kg |  |  | 0.4 mg/kg | 19 mg/kg | 0%
CCOCc1ccc(OCC(O)CNC(C)C)cc1 (centres unmarked) [Ex. III, 1-isopropylamino-3-(p-ethoxymethyl-phenoxy)-propanol-2] |  | 175 mg/kg |  | 0% | 0.4 mg/kg | 6 mg/kg | 
C=CCc1ccccc1OCC(O)CNC(C)C (centres unmarked) [alprenolol, reference compound] | 0.1 mg/kg |  | 0.05 mg/kg | 20% |  |  | 
CCOCCc1ccc(OCC(O)CNC(C)C)cc1 (stereo not drawn) [Ex. II, 1-isopropylamino-3-[p-(β-ethoxyethyl)-phenoxy]-propanol-2] |  | 150 mg/kg |  | 0% | 0.3 mg/kg | 4 mg/kg | 

From patent publication US3998790A, “Phenoxy-hydroxypropylamines, their preparation, and method and pharmaceutical preparations for treating cardiovascular diseases” (priority 1974, dated 1976)
